In ChEMBL document CHEMBL6127044, “An insight into G-quadruplexes: Identification and potential therapeutic targets in livestock viruses” (Eur J Med Chem, 2024):
pEC50: −log10 of the molar value.

Tested on: SARS-CoV-2
Test: Antiviral activity against SARS-CoV-2 Wuhan 5-2N variant infected in African green monkey Vero E6 cells measured 3 days post infection by WST-8 assay
Format: functional, organism-based
Conditions: Severe acute respiratory syndrome coronavirus 2, Wuhan 5-2N, Vero C1008, 72 h

SMILES: CCc1c(C)c2cc3nc(cc4nc(cc5c(CC)c(C)c(cc1[nH]2)n5C)C(C)=C4CCC(=O)O)C(CCC(=O)O)=C3C
- pEC50: 8.94
